How the values were obtained:
E. coli = assay: Inhibition zone on agar plates; format: cell-based; conditions: liquid applied to agar plate
Protocol: A bacterial suspension (0.1 ml) was spread onto tryptone soya agar plates. HEPA filters with ionic liquid coatings were cut into small pieces. They were then placed on the center of plates spread by bacteria. The plates were incubated at room temperature for 48 hours.

[1] = system: A549 lung epithelial cells
Protocol: A549 lung epithelial cells were grown in 25 cm^2 flasks with Dulbecco's modified Eagle's medium (DMEM) supplemented with 10% fetal bovine serum, 100 U/ml streptomycin, and 50 U/ml penicillin at 37° C. in a humidified atmosphere with 5% CO2. A subculture of confluent monolayers was carried out using 0.05% trypsin, 0.53 mmol/l ethylenediaminetetraacetic acid in calcium and magnesium-free Hanks balanced salt solution (HBSS). […] For the 3-(4,5-dimethylthiazol-2-yl)-2,5-diphenyltetrazolium bromide (MTT) assay, cells were plated in 96-well microplates at 2×10^5 cell/well for 6 hours, then the media were gently changed to remove non-adherent cells. The plates were used for assays after 24 hours. […] The media were replaced with 100 μl of dimethyl sulfoxide for 20 minutes, and the absorbances at 595 nm were determined using a microplate reader. […] The inhibition rate, I, is given by [formula] where C is the absorbance of the control group containing the cell solution and MTT, which indicates the number of maximum living cells, S is the absorbance of the sample group containing the cell solution, ionic liquids and MTT, which indicates the number of living cells in the ionic liquids, and B is the absorbance of the blank group containing only pure culture media and MTT, which is set reduce interference by the natural environment.

## CCn1cc[n+](C)c1.F[B-](F)(F)F [EMIM-BF4, 1-ethyl-3-methylimidazolium tetrafluoroborate]
E. coli
  inhibition zone for E. coli: obvious inhibition
[1]
  cytotoxicity (inhibition rate) for A549 lung epithelial cells: lowest cytotoxicity

## CCO [ethanol, reference compound]
E. coli
  inhibition zone for E. coli: no clear inhibition zones
